Test results taken from patent US20160370379A1, “BLOOD-BASED BIOMARKER FOR CANCER” (J-PHARMA CO., LTD., priority 2014, published 2016).

Key:
[1] = system: pancreas cancer cell line T3M-4; test: Amino acid concentration in culture medium of pancreas cancer cell line with LAT1 inhibitor added; format: cell-based; details: T3M-4 culture, inhibitor added at each concentration, medium collected 0-97 hrs (FIG. 3b)
Description: (§1) Each of the cancer cell lines 44As3-11 (gastric cancer cell line), T3M-4 (pancreas cancer cell line), and MIAPaCa-2 (pancreas cancer cell line) was used. By using a 6 well plate, culture was performed at 37° C. with 5×10^4 cells in 3 mL (10% FBS, L-Glu+PS in RPMI1640). The culture medium was collected at 0, 24, 48, 72, and 97 hrs and centrifuged at 1,000 rpm. The supernatant (1.0 mL) was then stored in a deep freezer (−80° C.) during a period until determination. Eight kinds of amino acids (including phenylalanine in addition to the aforementioned histidine, isoleucine, leucine, methionine, tryptophan, valine, and tyrosine) were measured by mass analysis. Each culture was performed in triplet and, by measuring the sample, the concentration of each amino acid was represented as mean value±standard deviation, and then compared among the groups. Furthermore, after adding an anticancer agent (O-(5-amino-2-phenylbenzoxazol-7-yl)methyl-3,5-dichloro-L-tyrosine) at each concentration to the culture medium, the property of inhibiting the decrease in amino acid concentration in the culture medium was observed.
(§2) 3) As for the statistical processing, Mann-Whitney U test was used for comparison between two groups, and those having a risk ratio of 0.05 or less were determined to be a significant difference.

[2] = target: T1, LAT1 (Homo sapiens, UniProt Q01650); test: Free amino acid concentration in blood serum of cancer patients at BSC stage administered inhibitor agent; format: in vivo
T1 construct: from tissue; host or cells: Solid tumours (pancreas, colon, gall bladder cancer with metastases) in living patients
T1 sequence (Q01650 whole entry): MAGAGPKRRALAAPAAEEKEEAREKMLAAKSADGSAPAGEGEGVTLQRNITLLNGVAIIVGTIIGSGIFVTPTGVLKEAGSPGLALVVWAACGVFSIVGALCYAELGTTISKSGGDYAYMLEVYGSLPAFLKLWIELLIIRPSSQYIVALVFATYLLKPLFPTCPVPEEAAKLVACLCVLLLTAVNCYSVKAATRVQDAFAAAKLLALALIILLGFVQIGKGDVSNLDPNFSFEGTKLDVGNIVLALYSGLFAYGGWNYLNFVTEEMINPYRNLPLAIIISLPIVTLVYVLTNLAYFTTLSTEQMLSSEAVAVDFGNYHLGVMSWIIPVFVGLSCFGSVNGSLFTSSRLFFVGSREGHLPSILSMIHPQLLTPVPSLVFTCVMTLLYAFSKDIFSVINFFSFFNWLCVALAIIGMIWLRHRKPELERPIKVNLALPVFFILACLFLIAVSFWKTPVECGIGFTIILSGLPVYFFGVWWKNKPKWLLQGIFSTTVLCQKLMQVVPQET
T1 sequence (P08195 102-630 partner): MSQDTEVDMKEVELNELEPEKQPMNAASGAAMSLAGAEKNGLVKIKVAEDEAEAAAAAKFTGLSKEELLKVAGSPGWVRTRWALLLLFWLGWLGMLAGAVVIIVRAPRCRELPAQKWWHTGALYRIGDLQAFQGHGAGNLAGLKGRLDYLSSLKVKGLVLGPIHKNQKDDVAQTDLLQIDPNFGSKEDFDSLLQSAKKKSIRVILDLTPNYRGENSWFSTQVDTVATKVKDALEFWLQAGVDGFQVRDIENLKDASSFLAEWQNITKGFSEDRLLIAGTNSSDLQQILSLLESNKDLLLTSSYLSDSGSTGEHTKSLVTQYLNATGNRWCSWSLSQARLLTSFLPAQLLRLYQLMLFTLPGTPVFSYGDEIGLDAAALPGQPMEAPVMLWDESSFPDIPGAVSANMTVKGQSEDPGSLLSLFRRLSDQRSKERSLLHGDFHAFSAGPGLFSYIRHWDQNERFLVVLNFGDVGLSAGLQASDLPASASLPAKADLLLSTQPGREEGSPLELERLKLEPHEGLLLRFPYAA
Description: Immediately after collecting blood from patients having gastric cancer [100 samples, average age (lowest value-highest value) 66.1 (31 to 89 years old), sex ratio 72:28], pancreas cancer [27, 70.3 (56 to 81) 13:14], or bile duct cancer [6, 70.5 (68 to 75) 5:1] and healthy control with no cancer [12, 50.8 (29 to 73) 11:1], blood serum was isolated and stored in a deep freezer (−80° C.) during a period until determination. The concentration of seven types of amino acids (histidine, isoleucine, leucine, methionine, tryptophan, valine, and tyrosine) was measured by mass analysis, and the measurement result was compared to the value obtained from blood of a healthy control. The concentration of each amino acid was represented as relative value of each case, with the mean value from the healthy control being 100%. The percentage was compared between the cancer patient and healthy control.
A predetermined clinical test (test and experiment) was registered with an administration bureau, and after obtaining an approval of the institutional review board (IRB) of a site management organization, patients were selected and blood serum for analysis was collected, stored, and analyzed. The patient as a subject carried solid tumors for which standard treatments for cancer are ineffective or are intolerable, and they were in a state generally referred to as a BSC stage. […]

[3] = system: gastric cancer cell line 44As3-11; test: Amino acid concentration in culture medium of gastric cancer cell line with LAT1 inhibitor added; format: cell-based; details: 44As3-11 culture, inhibitor added at each concentration, medium collected 0-97 hrs (FIG. 2b)
Description: as §1, §2

Nc1cc(COc2c(Cl)cc(C[C@H](N)C(=O)O)cc2Cl)c2oc(-c3ccccc3)nc2c1 [LAT1 inhibitor, O-(5-amino-2-phenylbenzoxazol-7-yl)methyl-3,5-dichloro-L-tyrosine]
inhibition of the decrease in concentration of eight amino acids in the culture medium [1]: property of inhibiting amino acid decrease in a pharmaceutical concentration dependent manner was shown | concentration of each amino acid in blood serum after single administration versus before administration ([2]; patients at BSC stage, 12 mg/m^2/day, 25.5 hours after start of single administration (FIGS. 4a, 4b)): higher than the value before the administration | relative blood concentration of eight amino acids before versus after single administration ([2]; subjects 102 and 104, healthy control mean = 100, Student's t test (FIG. 4c)): significant difference between cases before and after the single administration | inhibition of the decrease in concentration of eight amino acids in the culture medium [3]: property of inhibiting amino acid decrease in a pharmaceutical concentration dependent manner was shown
